From US10611741B2, “Substituted benzoxazine and related compounds” (THE J. DAVID GLADSTONE INSTITUTES, A TESTAMENTARY TRUST …, priority 2014, dated 2020)

Legend:
[1] = test system: primary neurons transfected with exon 1 of mHtt protein containing 97 poly-glutamines; assay: Neuronal death assay (primary rodent neuron cellular model of HD, survival by robotic microscopy); assay type: cell-based; conditions: for protecting neurons from mHtt toxicity: in words
Experimental: The compounds were tested in a primary rodent neuron cellular model of HD. In this disease model, neurons from the striatum, the site of severe pathology in HD, are transfected with full-length or N-terminal fragments of wild-type Htt or mHtt. The model recapitulates cellular and molecular features seen in HD, including mHtt-dependent neurodegeneration. To use the model in drug discovery, striatal neurons are co-transfected with fluorescently tagged mHtt and marker proteins and examined longitudinally using an automated fluorescent microscopy system (U.S. Pat. No. 7,139,415, incorporated by reference in its entirety). Neurons that express mHtt are periodically imaged, and the loss of fluorescence of the marker protein corresponds to cell death. Importantly, the automated system monitors how mHtt affects neuronal survival by following single cells longitudinally, distinguishing transfected neurons from non-transfected cells. Neurodegeneration is quantified by the difference in survival time between neuronal cells expressing mHtt and neuronal cells expressing wild-type Htt; drugs that increase neuronal survival in neurons expressing mHtt are neuroprotective. Hazard functions are determined by Cox proportional hazards (CPH) analysis to create hazard ratios that are the estimated instantaneous risk of death of individual cells, independent of population size.
Exemplifying compounds were tested for protecting neurons from mHtt toxicity. For this survival assay, primary neurons were transfected with a construct expressing exon 1 of mHtt protein containing 97 poly-glutamines and a fluorescent reporter to track the neurons. Neurons were imaged for 7 days using automated fluorescent robotic microscopy and analyzed for survival. Fluphenazine (Compound N) at 100 nM was used as positive control. DMSO was used as negative control.

[2] = test system: Rat neurons; assay: Neuron autophagy assay (flux LC3 assay, conversion of photoconvertible reporter); assay type: cell-based; conditions: tested at 5, 10, 50, 200, 500, 1000 nM, overnight treatment, read-out: concentration at which active (neuronal autophagy induction)
Experimental: The induction of neuronal autophagy herein was measured by the conversion of photoconvertible reporter in a flux LC3 assay, as described in Tsvetkov et al., Nature Chemical Biology, 9:586-592 (2013), which is incorporated herein by reference.
mApple, kindly provided by Kurt Thorn of the Nikon microscopy core at UCSFR, was cloned into the pGW1 vector. pGW1-GFP and pGW1-Htt^exl-Q97-GFP were transfected according to normal protocols.
Cell cultures included striata, cortices, and hippocampi from rat embryos or newborn (postnatal day 0) mice were dissected, dissociated, and plated on 96-well tissue culture plates coated with poly-D-lysine and laminin. Cells were cultured for 4 days in neurobasal medium with L-glutamine and B-27 before use.
Rat neurons were transfected with plasmids using lipofectamine, treated overnight with vehicle (DMSO) or 5, 10, 50, 200, 500, and 1000 nM of exemplifying compounds and imaged everyday, once a day, for 7 days. […] Kolmogrov-Smirnov statistics test was used to calculate P values.

[3] = Table 3, dose 200 nM, mHtt neurons, imaged 7 days
[4] = Table 4, dose 50 nM, mHtt neurons, imaged 7 days
[5] = Table 5, dose 10 nM, mHtt neurons, imaged 7 days

Compound	protecting neurons from mHtt toxicity [1]	minimal effective concentration [2] [µM]	Hazard Ratio [1, 4]	other results
Cc1ccc2c(c1)N(C(=O)CC1CCN(C)CC1)CCO2 [L, 1-(6-methyl-2,3-dihydro-4H-benzo[b][1,4]oxazin-4-yl)-2-(1-methylpiperidin-4-yl)ethan-1-one]	active at nM concentrations			Hazard Ratio [1, 3]: 0.9143
Cc1ccc2c(c1)N(C(=O)CN1CCN(C)CC1)CCO2 [B, 1-(6-methyl-2,3-dihydro-4H-benzo[b][1,4]oxazin-4-yl)-2-(4-methylpiperazin-1-yl)ethan-1-one]		< 0.05		
Cc1ccc2c(c1)N(C(=O)CCN1CCN(C)CC1)CCO2 [A, 1-(6-methyl-2,3-dihydro-4H-benzo[b][1,4]oxazin-4-yl)-3-(4-methylpiperazin-1-yl)propan-1-one]		< 0.05		
COCCN1CCN(C(=O)CN2CCOc3ccc(C)cc32)CC1 [R, 1-[4-(2-methoxyethyl)piperazin-1-yl]-2-(6-methyl-2,3-dihydro-1,4-benzoxazin-4-yl)ethanone]	active at nM concentrations		0.7345	Hazard Ratio [1, 5]: 0.7036
Cc1ccc2c(c1)N(CC(=O)N1CCN(C)CC1)C(=O)CO2 [I, 6-methyl-4-(2-(4-methylpiperazin-1-yl)-2-oxoethyl)-2H-benzo[b][1,4]oxazin-3(4H)-one]		< 0.05		
Cc1ccc2c(c1)N(CCN1CCN(C)CC1)CCO2 [Compound D, 6-methyl-4-(2-(4-methylpiperazin-1-yl)ethyl)-3,4-dihydro-2H-benzo[b][1,4]oxazine]	active at nM concentrations	< 0.05		Hazard Ratio ([1]; Table 3, dose 10 nM, mHtt neurons, imaged 7 days): 0.9161
Cc1ccc2c(c1)N(CC(=O)N1CCN(CCNS(C)(=O)=O)CC1)CCO2 [Compound S, N-[2-[4-[2-(6-methyl-2,3-dihydro-1,4-benzoxazin-4-yl)acetyl]piperazin-1-yl]ethyl]methanesulfonamide]	active at nM concentrations		0.6953	
OCCN1CCN(CCCN2c3ccccc3Sc3ccc(C(F)(F)F)cc32)CC1 [Compound N, 2-(4-(3-(2-(trifluoromethyl)-10H-phenothiazin-10-yl)propyl)piperazin-1-yl)ethan-1-ol, reference compound]				Hazard Ratio ([1]; Table 3, dose 100 nM, positive control): 0.8553; Hazard Ratio ([1]; Table 4, dose 100 nM, positive control): 0.7018; Hazard Ratio ([1]; Table 5, dose 100 nM, positive control): 0.5273
Cc1ccc2c(c1)N(CC(=O)N1CCN(C)CC1)CCO2 [E, 2-(6-methyl-2,3-dihydro-4H-benzo[b][1,4]oxazin-4-yl)-1-(4-methylpiperazin-1-yl)ethan-1-one]	active at nM concentrations	< 0.05		Hazard Ratio ([1]; Table 3, dose 50 nM, mHtt neurons, imaged 7 days): 0.8952
Cc1ccc2c(c1)N(CCN1CCN(C)CC1)C(=O)CO2 [G, 6-methyl-4-(2-(4-methylpiperazin-1-yl)ethyl)-2H-benzo[b][1,4]oxazin-3(4H)-one]		< 0.05		
Cc1ccc2c(c1)N(C(=O)CN1CCN(C(C)C)CC1)CCO2 [P, 1-(6-methyl-2,3-dihydro-1,4-benzoxazin-4-yl)-2-(4-propan-2-ylpiperazin-1-yl)ethanone]	active at nM concentrations		0.7384	Hazard Ratio [1, 5]: 0.6275
Cc1ccc2c(c1)N(C(=O)CN1CCN(C3CCCCC3)CC1)CCO2 [O, 2-(4-cyclohexylpiperazin-1-yl)-1-(6-methyl-2,3-dihydro-1,4-benzoxazin-4-yl)ethanone]	active at nM concentrations		0.5747	
Cc1ccc2c(c1)N(CCC(=O)N1CCN(C)CC1)CCO2 [F, 3-(6-methyl-2,3-dihydro-4H-benzo[b][1,4]oxazin-4-yl)-1-(4-methylpiperazin-1-yl)propan-1-one]		< 0.05		
Cc1ccc2c(c1)N(C(=O)CN1CCN(c3ccccc3)CC1)CCO2 [Compound K, 1-(6-methyl-2,3-dihydro-4H-benzo[b][1,4]oxazin-4-yl)-2-(4-phenylpiperazin-1-yl)ethan-1-one]	active at nM concentrations			Hazard Ratio [1, 3]: 0.9209
Cc1ccc2c(c1)N(CCCN1CCN(C)CC1)CCO2 [C, 6-methyl-4-(3-(4-methylpiperazin-1-yl)propyl)-3,4-dihydro-2H-benzo[b][1,4]oxazine]		< 0.05		
Cc1ccc2c(c1)N(CC(=O)N1CCN(CCO)CC1)CCO2 [Q, 1-[4-(2-hydroxyethyl)piperazin-1-yl]-2-(6-methyl-2,3-dihydro-1,4-benzoxazin-4-yl)ethanone]	active at nM concentrations		0.5709	Hazard Ratio [1, 5]: 0.558
